From US5093363A, “2,4,6-substituted phenol derivatives” (priority 1989, dated 1992)

Legend:
[1] = system: production of peroxidized lipids in a homogenate of rat brain; experiment: Suppression of production of peroxidized lipids in a homogenate of rat brain (TBA method); type: biochemical, rat (SD strain); conditions: 37° C., 30 minutes
Method: [Suppression of production of peroxidized lipids in a homogenate of rat brain]
SD strain rats (body weight, about 200 g) were sacrificed by cutting down their heads, and the brains were taken out. The brains were homogenated with a 4-fold amount of 0.05 M phosphate-sodium chloride buffer (pH 7.4) and centrifuged at 1,000× g for 10 minutes. The supernatant was kept at -80° C. for storage.
The supernatant was diluted with a 2-fold amount of the same phosphate-sodium chloride buffer as above, and 0.45 ml of the dilution was combined with 30 μl of ethanol per se (vehicle) or ethanol solution containing a test compound, followed by incubation at 37° C. for 30 minutes. The reaction was terminated by addition of a solution of 0.1% butylhydroxytoluene (BHT) (20 μl) in 25% metaphosphoric acid (125 μl). After deproteinization, the peroxidized lipids in the supernatant were measured by the thiobarbituric acid (TBA) method according to the description by Ohkawa et al.: in Anal. Biochem., Vol. 95, page 351 (1979). The amount of peroxidized lipids produced was compared with that in the vehicle applied group and expressed in % control.

HMG-CoA reductase = molecular target: T1, HMG-CoA reductase (Rattus norvegicus, UniProt P51639); experiment: HMG-CoA reductase inhibitory activity (rat liver microsome); type: biochemical, rat (Sprague-Dawley); conditions: [3-^14 C]HMG-CoA, 37° C., 30 minutes, read-out: HMG-CoA reductase inhibitory activity IC50 (50% inhibition concentration)
T1 construct: Liver microsomes was prepared by using Sprague-Dawley rats; from tissue; host or cells: liver microsomes of Sprague-Dawley rats fed 2% cholestyramine diet
T1 sequence (P51639 1-887): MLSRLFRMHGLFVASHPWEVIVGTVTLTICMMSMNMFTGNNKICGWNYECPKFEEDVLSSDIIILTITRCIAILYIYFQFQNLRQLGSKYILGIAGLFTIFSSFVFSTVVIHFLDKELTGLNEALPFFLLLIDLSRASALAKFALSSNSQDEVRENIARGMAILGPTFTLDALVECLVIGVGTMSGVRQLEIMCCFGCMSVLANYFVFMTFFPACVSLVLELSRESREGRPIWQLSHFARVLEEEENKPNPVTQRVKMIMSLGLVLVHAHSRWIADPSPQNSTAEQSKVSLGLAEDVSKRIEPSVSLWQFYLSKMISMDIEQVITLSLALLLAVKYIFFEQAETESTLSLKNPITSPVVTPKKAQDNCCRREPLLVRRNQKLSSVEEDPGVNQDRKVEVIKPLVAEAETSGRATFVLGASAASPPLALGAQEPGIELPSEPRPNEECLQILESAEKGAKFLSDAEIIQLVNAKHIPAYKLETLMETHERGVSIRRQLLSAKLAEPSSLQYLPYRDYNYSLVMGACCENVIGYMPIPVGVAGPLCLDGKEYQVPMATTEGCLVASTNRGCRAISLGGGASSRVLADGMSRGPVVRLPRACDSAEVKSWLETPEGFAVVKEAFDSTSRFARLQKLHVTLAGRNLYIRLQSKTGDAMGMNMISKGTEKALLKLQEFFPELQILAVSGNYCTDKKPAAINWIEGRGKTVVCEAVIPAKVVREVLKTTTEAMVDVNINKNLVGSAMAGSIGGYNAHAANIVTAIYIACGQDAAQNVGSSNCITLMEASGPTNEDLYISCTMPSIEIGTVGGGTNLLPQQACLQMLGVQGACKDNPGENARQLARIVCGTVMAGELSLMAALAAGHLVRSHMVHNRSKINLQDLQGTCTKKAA
Method: [HMG-CoA reductase inhibitory activity]
(1a) Preparation of rat liver microsome
Liver microsomes was prepared by using Sprague-Dawley rats which freely take a general diet containing 2% cholestyramine and water for 2 weeks according to the report of Kuroda et al (Biochim. Biophys. Acta., 486, page 70, 1977). The microsome fraction obtained by centrifuging at 105000× g was washed with a solution containing 15 mM nicotinamide and 2 mM magnesium chloride (in 100 mM potassium phosphate buffer solution, pH 7.4) once. Then, thereto was added equal parts of the buffer solution containing nicotinamide and magnesium chloride to the weight of used liver. The mixture was homogenized, cooled to -80° C., and preserved.
(1b) Measurement of HMG-CoA reductase inhibitory activity
At 0° C., 100 μl of rat liver microsome preserved at -80° C. was melted and diluted with 0.7 ml of cool potassium phosphate buffer (100 mM, pH 7.4). Thereto was added 0.8 ml of 50 mM EDTA solution (the above-mentioned potassium phosphate buffer solution) and 0.4 ml of 100 mM dithiothreitol solution (the above-mentioned potassium phosphate buffer solution) and the mixture was maintained at 0° C. To 1.675 ml of the microsome solution was added 670 μl of 25 mM NADPH solution (the above-mentioned potassium phosphate buffer solution). […] By means of a scintillation counter, specific activity was measured.

cholesterol synthesis = conditions: disclosed by Nakatani, Farmashia 1988; cited from earlier work
[2] = concentration of test compound 0.01 mM
[3] = concentration of test compound 0.1 mM

| SMILES | Inhibitory rate (% control) [1, 2] [% control] | Inhibitory rate (% control) [1, 3] [% control] | IC50 (HMG-CoA reductase) [µM] | inhibit cholesterol synthesis (cholesterol synthesis) |
| --- | --- | --- | --- | --- |
| CC(C)(C)c1cc(SC[C@@H](O)C[C@@H](O)CC(=O)O)cc(C(C)(C)C)c1O [Compound No. 3, Sodium (3R,5S)-6-[(3,5-di-tert-butyl-4-hydroxyphenyl)thio]-3,5-dihydroxyhexanoate] | 35.7 | 94.9 | 54 |  |
| CC[C@H](C)C(=O)O[C@H]1C[C@@H](C)C=C2C=C[C@H](C)[C@H](CC[C@@H]3C[C@@H](O)CC(=O)O3)[C@H]21 [Lovastatin] |  |  | 0.024 | inhibit cholesterol synthesis |
| CC[C@H](C)C(=O)O[C@H]1CCC=C2C=C[C@H](C)[C@H](CC[C@@H]3C[C@@H](O)CC(=O)O3)[C@H]21 [Mevastatin] |  |  |  | inhibit cholesterol synthesis |
| CC[C@H](C)C(=O)O[C@H]1C[C@H](O)C=C2C=C[C@H](C)[C@H](CC[C@@H](O)C[C@@H](O)CC(=O)O)[C@H]21 [Pravastatin] |  |  |  | inhibit cholesterol synthesis |
| CC(C)(Sc1cc(C(C)(C)C)c(O)c(C(C)(C)C)c1)Sc1cc(C(C)(C)C)c(O)c(C(C)(C)C)c1 [Probucol] | 27.8 | 58.3 |  |  |
| CCC(C)(C)C(=O)O[C@H]1C[C@@H](C)C=C2C=C[C@H](C)[C@H](CC[C@@H]3C[C@@H](O)CC(=O)O3)[C@H]21 [Simarastatin] |  |  |  | inhibit cholesterol synthesis |
